From the supplement of paper PMC10307832

What was measured:
Experiment in all cases: relative viability (nuclei count vs DMSO), 5 days (fraction); higher = more cells survive
[1] = compound: C1CC2=C(C1)C=C(C=C2)OC3=NC(=C4C(=N3)N(C=N4)CC5=CC=C(C=C5)C6=CC=CC=C6)N[C@@H](CC7=CC=CC=C7)CO [QS11] + CC1(C)CCC(c2ccc(Cl)cc2)=C(CN2CCN(c3ccc(C(=O)NS(=O)(=O)c4ccc(N[C@H](CCN5CCOCC5)CSc5ccccc5)c(S(=O)(=O)C(F)(F)F)c4)cc3)CC2)C1 [Navitoclax] (partner 0.5 µM)
Procedure, shortened: (§1)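 Dosing by pin tool came one day after lung cancer cell lines were seeded in 1536-well plates, using either one drug or a fixed anchor-drug dose plus five library-drug doses (not always all listed) in √10 steps. After 5 days, nuclei were counted on 4× images. Relative viability is treated-well nuclei count divided by vehicle-well nuclei count, and values are medians of duplicate plates.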

[2] = compound: C[As](C)SC[C@H](NC(=O)CC[C@H](N)C(=O)O)C(=O)NCC(=O)O [Darinaparsin] + CC1(C)CCC(c2ccc(Cl)cc2)=C(CN2CCN(c3ccc(C(=O)NS(=O)(=O)c4ccc(N[C@H](CCN5CCOCC5)CSc5ccccc5)c(S(=O)(=O)C(F)(F)F)c4)cc3)CC2)C1 [Navitoclax] (partner 0.5 µM)
Procedure, shortened: as §1

[3] = compound: C[As](C)SC[C@H](NC(=O)CC[C@H](N)C(=O)O)C(=O)NCC(=O)O [Darinaparsin] + Cc1cc(Nc2cc(N3CCN(C)CC3)nc(Sc3ccc(NC(=O)C4CC4)cc3)n2)n[nH]1 [Tozasertib] (partner 0.1 µM)
Procedure, shortened: as §1

[4] = compound: C[As](C)SC[C@H](NC(=O)CC[C@H](N)C(=O)O)C(=O)NCC(=O)O [Darinaparsin] + Cc1nc(NC(=O)N2CCC[C@H]2C(N)=O)sc1-c1ccnc(C(C)(C)C(F)(F)F)c1 [Alpelisib] (partner 2 µM)
Procedure, shortened: as §1

Cell Line	relative viability ([1]; first compound 0.08 µM)	relative viability ([1]; first compound 0.253 µM)	relative viability ([1]; first compound 0.8 µM)	relative viability ([1]; first compound 2.53 µM)	relative viability ([1]; first compound 8 µM)	relative viability ([2]; first compound 0.08 µM)	relative viability ([2]; first compound 0.8 µM)	relative viability ([2]; first compound 2.53 µM)	relative viability ([2]; first compound 8 µM)	relative viability ([3]; first compound 0.08 µM)	relative viability ([3]; first compound 0.8 µM)	relative viability ([3]; first compound 2.53 µM)	relative viability ([3]; first compound 8 µM)	relative viability ([4]; first compound 0.08 µM)	relative viability ([4]; first compound 0.8 µM)	relative viability ([4]; first compound 2.53 µM)	relative viability ([4]; first compound 8 µM)
NCI-H838	1.11	1.1	0.755	1.2	1.02	1.51	1.15	1.15	1.5	0.275	0.24	0.256	0.304	1.18	1	0.846	1.14
NCI-H1993	0.833	0.761	0.997	0.946	0.893	0.801	0.836	1.04	1.16	0.598	0.585	0.549	0.557	0.712	0.681	0.688	0.678
HARA	1.17	1.21		1.21	1.35	1.39	1.07	1.08	1.37	0.153	0.103	0.125	0.0804	0.868	0.682	0.756	1.19
PC-3 [JPC-3]	0.738	0.884	0.771	0.84	0.938	0.832	0.748	0.767	0.825	1.08	0.996	0.739	1.1	1.02	0.982	0.992	1.11
NCI-H441	0.452	1.04	0.673	0.723	0.529	0.773	0.593	0.615	0.962	0.839	0.673	0.72	0.539	0.774	0.635	0.809	0.893
NCI-H1793	0.393	0.482	0.38	0.436	0.404	0.649	0.366	0.333	0.442	0.344	0.305	0.278	0.385	0.716	0.935	0.643	0.958
NCI-H2126	0.867	0.796	0.67	0.823	0.62	0.949	0.835	0.856	0.86	0.935	0.794	0.69	0.878	0.803	0.737	0.616	0.804
BEN	0.0566	0.0797	0.0702	0.047	0.0634	0.0561	0.0673	0.0517	0.0548	0.489	0.498	0.463	0.444	0.963	1.09	0.956	1.33
HCC-366	1.05	1.08		0.721	0.414	1.3	1.06	1.12	1.41	0.147	0.0892	0.149	0.168	0.753	0.424	0.329	0.706
NCI-H596	0.94	0.961	1.07	0.969	1.24	1.3	1.11	0.83	1.23	1.13	0.958	0.872	0.979	0.511	0.621	0.421	0.602
NCI-H1944	1.06	1.1		1.07	0.973	1.06	1.07	1.04	1.06	0.245	0.263	0.251	0.243	0.946	0.912	0.823	0.905
HCC-827	0.987	1.01	0.833	0.944	0.899	1.07	1.07	1.05	1.05	0.435	0.453	0.422	0.491	1.05	1.04	1.01	1.04
NCI-H727	0.389	0.346	0.47	0.301	0.328	0.405	0.447	0.472	0.393	0.731	0.552	0.699	0.599	0.718	0.587	0.549	0.683
NCI-H1915	0.816	0.805		0.865	0.868	0.88	0.82	0.771	0.812	0.502	0.479	0.427	0.435	1.12	1.06	1.03	1.11
NCI-H2347	0.598	0.826	0.716	0.743	0.839	0.77	0.777	0.748	0.707	0.587		0.555	0.469	1.21	1.09	1.04	1.09
NCI-H647	1.28	1.12	1.07	1.13	1.1	1.42	1.09	0.981	1.04	0.0828	0.282	0.232	0.385	1.57	1.16	0.827	1.31
CAL-12T	1.18	1.39	1.15	1.08	1.14	1.48	1.11	1.27	1.37	0.343	0.3	0.326	0.341	1.41	1.01	1.28	1.89
